≈ marks a conversion by molar mass, not a printed value. Where two headings read alike, the source gives them in different places.
Key:
[1] = system: S. epidermidis (KCTC 1917); assay type: cell-based, Staphylococcus epidermidis; details: CLSI broth dilution, MHB, 37 °C, 18 to 24 h
Protocol: (§1) Peptides were assessed for their antibacterial activity against four Gram-positive and four Gram-negative bacteria, including drug-resistant strains, in accordance with Clinical and Laboratory Standards Institute (CLSI) guidelines. The minimum inhibitory concentration (MIC) was determined using a microtiter broth dilution method. All bacterial strains were incubated overnight at 37 °C. Cultured bacteria were then diluted 10-fold in Muller–Hinton Broth (MHB) medium (Difco, Detroit, MI, USA) and incubated for 3 h to reach mid-log phase. Following the establishment of mid-log phase cultures, bacteria were inoculated into sterile 96-well plates containing serially diluted peptides. The MIC was defined as the lowest concentration of peptides that prevented observable turbidity after incubation of the plates at 37 °C for 18 to 24 h.

[2] = system: RAW 264.7 macrophage cells; test: Cytotoxicity, MTT assay; assay type: cell-based, mouse; details: 4 µM peptide, RAW 264.7, 48 h, triplicate
Protocol: We conducted the MTT assay (3-(4,5-dimethylthiazol-2-yl)-2,5-diphenyltetrazolium bromide) dye reduction experiment against RAW 264.7 macrophage cells to evaluate the cytotoxicity of the peptides, following previously published methods. RAW 264.7 cells were cultured for 24 h in the presence of 5% CO2 at 37 °C after seeding them in 96-well plates (2 × 10^4 cells/well). Subsequently, the peptides were treated at increasing concentrations and allowed to interact with the cells for 48 h. Following the incubation period, 20 μL of MTT solution (5 mg/mL in PBS) was added to each well, and the plate was further incubated at 37 °C for 4 h. The absorbance was then measured at 550 nm using a microplate ELISA reader after dissolving the formazan crystals in dimethyl sulfoxide (DMSO). Treatment with 0.1% Triton X-100 served as a positive control for 100% cytotoxicity. Each experiment was performed in triplicate.

[3] = system: MRSA; assay type: cell-based, Staphylococcus aureus
Protocol: (§2) We assessed the antibiofilm activity of the peptides by determining their minimum biofilm eradication concentration (MBEC) and minimum biofilm inhibition concentration (MBIC) against drug-resistant bacteria, including MDRPA and MRSA, as previously described. A 96-well plate containing a subculture of 1 × 10^6 CFU/200 μL of bacteria was incubated overnight at 37 °C with or without peptides to test for biofilm inhibition and eradication. The untreated culture served as the negative control, and LL-37 was used as the control peptide.

[4] = system: four Gram-positive and four Gram-negative bacteria; assay type: cell-based; details: over the eight strains of Table 2
Protocol: as §1

[5] = system: MDRPA; assay type: cell-based, Pseudomonas aeruginosa
Protocol: as §2

[6] = system: S. aureus; test: SYTOX green uptake assay; assay type: cell-based, Staphylococcus aureus; details: negative control
Protocol: The SYTOX green experiment was utilized to assess the impact of peptides on bacterial membrane permeabilization. S. aureus cells in the mid-log phase (OD600 = 0.5) were washed three times in a buffer containing 20 mM glucose and 5 mM HEPES (pH 7.4). Subsequently, the bacterial cell suspensions were diluted in a buffer consisting of 5 mM HEPES, 100 mM KCl, and 20 mM glucose, at pH 7.4, to a concentration of 1 × 10^6 CFU/mL. After incubating for fifteen minutes in complete darkness, 0.5 μM SYTOX green was added to the bacterial suspensions. The Shimadzu fluorescence spectrophotometer RF-5300PC (Shimadzu Scientific Instruments, Kyoto, Japan) was employed to monitor SYTOX green fluorescence following the addition of peptides at a concentration of 2 × MIC. In the Shimadzu fluorescence spectrophotometer, the excitation and emission wavelengths were set at 485 nm and 520 nm, respectively.

[7] = system: E. coli (KCTC 1682); test: Outer membrane permeability (NPN uptake); assay type: cell-based, Escherichia coli; details: varying peptide concentrations; NPN fluorescence
Protocol: The fluorescent probe NPN (1-N-phenylnaphthylamine) was utilized to measure the outer membrane permeability of Gram-negative E. coli. Mid-log phase E. coli cells were diluted to an OD600 of 0.05 after being washed three times in a buffer containing 5 mM HEPES, 20 mM glucose, and 5 mM KCN at pH 7.4. A 1 mM stock solution of NPN was prepared by dissolving NPN in acetone. To achieve a final concentration of 10 µM, 30 μL of the stock solution was added to the bacterial suspension. […] Fluorescence was then measured over time after the peptides were added, with the concentration increasing until it reached a steady state. ONPG (o-nitrophenyl-β-[…]), a […] substrate used for cytoplasmic membrane β-galactosidase enzyme, was employed to assess the release of β-galactosidase from E. coli ML-35, aiming to determine the inner membrane permeability of peptides. A 1.5 mM solution of ONPG was added to a sample buffer consisting of 10 mM sodium phosphate and 100 mM NaCl at pH 7.4, which was used to suspend mid-log phase E. coli ML-35 bacteria to an OD600 of 0.5. […] The fluorescence of ONPG increases when it is hydrolyzed to form o-nitrophenol. The permeability of the inner membrane of E. coli ML-35 bacteria was assessed by the influx of ONPG, a substance that was then broken down into o-nitrophenol, forming a yellow product, by the presence of β-galactosidase in the cytoplasm.

[8] = 8 to 16 µM, sentence does not tell MRSA and MDRPA apart

CC[C@H](C)[C@H](NC(=O)CN)C(=O)NCC(=O)N[C@@H](C)C(=O)N[C@H](C(=O)N[C@@H](CC(C)C)C(=O)N[C@@H](CCCCN)C(=O)N[C@H](C(=O)N[C@@H](CC(C)C)C(=O)N[C@H](C(=O)N[C@H](C(=O)NCC(=O)N[C@@H](CC(C)C)C(=O)N1CCC[C@H]1C(=O)N[C@@H](C)C(=O)N[C@@H](CC(C)C)C(=O)N[C@H](C(=O)N[C@@H](CO)C(=O)N[C@@H](Cc1c[nH]c2ccccc12)C(=O)N[C@H](C(=O)N[C@@H](CCCCN)C(=O)N[C@@H](CCCNC(=N)N)C(=O)N[C@@H](CCCCN)C(=O)N[C@@H](CCCNC(=N)N)C(=O)N[C@@H](CCC(N)=O)C(=O)N[C@@H](CCC(N)=O)C(N)=O)[C@@H](C)CC)[C@@H](C)CC)[C@@H](C)O)[C@@H](C)O)C(C)C)C(C)C [Melittin]
MIC [1]: 8 µM (≈ 22.8 µg/mL) | cell survival rate [2]: less than 10% | inhibition of biofilm formation ([3]; MRSA, 4 µM peptide): ~90% | GM, geometric mean of the MIC [4]: 10.5 µM | inhibition of biofilm formation ([5]; MDRPA, 8 µM peptide): ~90%

Buforin-2
effect on SYTOX green fluorescence intensity [6]: did not affect fluorescence intensity | outer membrane permeability [7]: No appreciable outer membrane permeability

CC[C@H](C)[C@H](NC(=O)[C@H](CCCCN)NC(=O)[C@H](CCC(=O)O)NC(=O)[C@H](CCCCN)NC(=O)[C@H](CO)NC(=O)[C@H](CCCCN)NC(=O)[C@H](CCCNC(=N)N)NC(=O)[C@H](Cc1ccccc1)NC(=O)[C@H](Cc1ccccc1)NC(=O)[C@H](CC(=O)O)NC(=O)CNC(=O)[C@H](CC(C)C)NC(=O)[C@@H](N)CC(C)C)C(=O)NCC(=O)N[C@@H](CCCCN)C(=O)N[C@@H](CCC(=O)O)C(=O)N[C@@H](Cc1ccccc1)C(=O)N[C@@H](CCCCN)C(=O)N[C@@H](CCCNC(=N)N)C(=O)N[C@H](C(=O)N[C@H](C(=O)N[C@@H](CCC(N)=O)C(=O)N[C@@H](CCCNC(=N)N)C(=O)N[C@H](C(=O)N[C@@H](CCCCN)C(=O)N[C@@H](CC(=O)O)C(=O)N[C@@H](Cc1ccccc1)C(=O)N[C@@H](CC(C)C)C(=O)N[C@@H](CCCNC(=N)N)C(=O)N[C@@H](CC(N)=O)C(=O)N[C@@H](CC(C)C)C(=O)N[C@H](C(=O)N1CCC[C@H]1C(=O)N[C@@H](CCCNC(=N)N)C(=O)N[C@H](C(=O)N[C@@H](CCC(=O)O)C(=O)N[C@@H](CO)C(=O)O)[C@@H](C)O)C(C)C)[C@@H](C)CC)C(C)C)[C@@H](C)CC [LL-37]
inhibition of biofilm formation [3, 8]: approximately 50% | inhibition of biofilm formation [5, 8]: approximately 50%
